Reference: patent US20030180345A1, “Compositions and methods for inhibiting islet dysfunction and autoimmune disorders” (priority 2000, published 2003)

Experiments:
IGF-II = assay: Islet IGF-II immunoreactivity with dietary taurine supplementation; type: in vivo, Wistar rats; conditions: LP diet with taurine
Description: Animals and diets were prepared as described in Example 7. The pancreas was removed, and IGF-II immunoreactivity was evaluated according to a method described by […] et al., (Endocrinology 1999;140: 4861-4873). Expression of IGF-II, considered a survival factor for cells, was measured as an indicator of the overall health of the β cells.

fetal islet β cells = assay: SNP-induced apoptosis in cultured fetal islets (TUNEL, confocal microscopy); type: cell-based, Wistar rats; conditions: for in vitro apoptotic rate: absence of SNP
Description: Animals and Diets. Adult virgin female Wistar rats were caged overnight with males and copulation was verified the next morning. Animals were maintained at 25° C. with a 10 h-14 h dark-light cycle. Pregnant rats were divided into two groups and fed one of the following isocaloric diets: either a control diet (C) containing 20% protein or a low protein diet (LP) containing 8% protein. The composition of the diet was as described previously by Snoeck et al. 1990 (Biol. Neonate 57, 107-118). The diets were purchased from Hope Farms (Woerden, Holland). Animals in both the groups had free access to water at all times. At 21.5 days of gestation, females were sacrificed by decapitation and fetuses removed.
Islet culture and treatment. Fetal islets were isolated as described by Mourmeaux et al. 1985 (Molecular and Cellular Endocrinology 39:237-246). Islets were cultured in 35 mm Petri-dishes (Falcon plastics, Los Angeles, Calif.) in RPMI 1640 medium (Gibco, Grand Island, N.Y., USA) with 10% Fetal Bovine Serum and antibiotics (penicillin 200 U/ml, streptomycin 0.2 mg/ml). Petri dishes were incubated at 37° C. with 5% CO2 in air. The culture medium was changed daily after the second day. On the 5th day of culture, islets were rinsed twice with serum free DME/F12 medium (1:1, v/v, Gibco, Paisley, Scotland) and subsequently incubated for 42 hours in this medium. […]
TUNEL method for evaluating apoptosis. Apoptosis was evaluated by the TUNEL method described herein, and visualized with confocal microscopy. Cultured islets were fixed in methanol and stored at −20° C. until analysis. The tissue was then washed with phosphate buffered saline (PBS) for 3 min, and a terminal deoxynucleotidyl transferase (TdT) reaction buffer (50 μl) was added. The 50 μl of TdT solution was prepared using 10 μl of 5× concentrated buffer solution (1 mol/l potassium cacodylate; 125 mmol/l Tris-HCl, pH 6.6; 1.26 mg bovine serum albumin). Cobalt chloride (5 μl of 25 mmol/l), 0.5 μl (12.5 units) of TdT (both from Boehringer Mannheim, Germany), and 0.25 nmoles of BODIPY-FL-X-14-dUTP (Molecular Probes, Eugene, Oreg. USA) were added, along with distilled water, up to 50 μl. Islets were incubated in Petri dishes with the TdT reaction buffer for 60 min at 37° C., then rinsed twice with 15 mmol/l EDTA (pH 8.0) in PBS and once with 0.1% Triton X-100 in PBS. Then, 2 ml of PBS containing 2.5 μg/ml of propidium iodide (Molecular Probes, Eugene, Oreg. USA) was added to the dishes for 5 min. Finally, islet cells were washed with 15 mmol/l EDTA (pH 8.0). Islet cells were then double-labelled for apoptotic nuclei, showing the BODIPY-FL-dUTP label in […] and total nuclei with propidium iodide in red.
Confocal microscopy. Staining probes were visualised through a confocal laser scanning microscopy system (MRC-1024 UV; BIO-RAD, UK) equipped with Argon ion and Krypton/Argon ion lasers. BODIPY-FL was excited at 503 nm, ethidium bromide at 510 nm, propidium iodide at 536 nm and Hoechst 33342 at 346 nm. The emissions were recorded respectively at 522/32 nm, 605/32 nm and 455/30 nm. Four to six optical sections were collected at every 15 μm through the islet. The number of BODIPY-FL-positive or ethidium bromide-positive nuclei were reported and expressed as a percentage of the total number of nuclei.
Animals, diets, and fetal islet isolation procedures were conducted as described in Example 1.

fetal islet cells = assay: In vitro fetal islet cell proliferation (BrdU incorporation); type: cell-based, Wistar rats; conditions: LP islets; taurine 1.25 or 2.5 mmol/l in culture media
Description: Animals and diets were as described in Example 1. Fetuses were removed at fetal day 21.5, and fetal islet cells were isolated and treated as described in Example 1. Taurine was added to incubation medium at levels of either 0 mmol/l, 1.25 mmol/l or 2.5 mmol/l. Proliferation was evaluated using bromodeoxyuridine (BrdU) incorporation into DNA.

[1] = taurine 0.3 mmol/l or 3 mmol/l; acellular
Description: Nitric oxide is a reactive free radical which leads to peroxynitrite formation, another reactive free radical, by interaction with superoxide (NO+OO^−→ONOO^−). […] Luminol-derived chemiluminescence induced by peroxynitrite produced by the decomposition of sydnonimine (SIN-1) was evaluated to investigate the possibility that taurine quenched the peroxynitrite formed from NO.

iNOS = assay: Islet iNOS immunoreactivity with dietary taurine supplementation; type: in vivo, Wistar rats; conditions: all stages
Description: (§1) Animals and diets were prepared as described in Example 8. The pancreas was removed, and the presence of Fas, Fas ligand, inducible nitric oxide synthase (iNOS) and vascular endothelial growth factor (VEGF) were evaluated in pancreatic sections using immunoreactivity.

NOD mice = assay: Onset of diabetes (glucosurea) in female NOD offspring after maternal taurine supplementation; type: in vivo
Text: Pregnant NOD mice were obtained and maintained on a control diet as described in Example 13. Pregnant mice were either supplemented with taurine in the drinking water (n=51) or were unsupplemented (n=37) throughout pregnancy. The supplemented group received taurine at a concentration of 2.5% (w/v) in drinking water. Considering the average amount of water consumed, this is equivalent to a taurine consumption of about 0.75 g/day per animal. Taurine supplementation ceased post-partum, and offspring were allowed to nurse for 21 days. […] Onset of diabetes was determined by the appearance of glucosurea which was assessed using glucose detection sticks.

Fas ligand = assay: Islet Fas ligand immunoreactivity with dietary taurine supplementation; type: in vivo, Wistar rats; conditions: post-natal day 14
Description: as §1

VEGF = assay: Pancreatic VEGF immunoreactivity with dietary taurine supplementation; type: in vivo, Wistar rats; conditions: decrease by low protein diet; regardless of developmental stage
Description: as §1

In the case of NCCS(=O)(=O)O [taurine, 2-aminoethylsulfonic acid], the IGF-II immunoreactivity (IGF-II; fetal period (F21.5)) is reported as “increased IGF-II immunoreactivity to a level consistent with the C diet animals”, the IGF-II immunoreactivity (IGF-II; post-natal) is reported as “restored IGF-II immunoreactivity levels to the point that the control IGF-II level was surpassed” and the “reduction of SNP-induced apoptosis” value (fetal islet β cells; 0.3 mmol/l taurine, SNP 100 μmol/l, LP islets) is reported as 60%. The “reduction of SNP-induced apoptosis” value (fetal islet β cells; 0.3 mmol/l taurine, SNP 100 μmol/l, control islets) was 30%, the “in vitro apoptotic rate” value (fetal islet β cells; control diet (C) islets, 0.3 mmol/l taurine) was 1.5±0.2% and the “in vitro apoptotic rate” value (fetal islet β cells; control diet (C) islets, 3 mmol/l taurine) was 1.4±0.3%. For the same compound, the “in vitro apoptotic rate” value (fetal islet β cells; low protein diet (LP) islets, 0.3 mmol/l taurine) was 2.1±0.3%, the “in vitro apoptotic rate” value (fetal islet β cells; low protein diet (LP) islets, 3 mmol/l taurine) was 2.1±0.4% and the “percentage of β cells positive for apoptosis” value (fetal islet β cells; taurine 0.3 or 3 mmol/l, SNP 100 μmol/l, both diet groups) was “significantly decreased”. For the same compound, the “in vitro islet cell proliferation rate (BrdU)” value (fetal islet cells) was “increased LP islet cell proliferation rate to the levels observed in C islets having no taurine addition”, the “concentration of NO released in the presence of SNP” value [1] was “not significantly altered” and the iNOS immunoreactivity (iNOS) was “no effect”. The “proportion of female offspring showing diabetes” value (NOD mice; at 25 weeks, maternal taurine 2.5% (w/v) in drinking water during pregnancy) was “about half”, the “proportion of taurine-supplemented group still not diabetic” value (NOD mice; at 50 weeks) was “about 10%” and the “Fas ligand presence in islets” value (Fas ligand) was “reduced”. The “VEGF immunoreactivity in the pancreas” value (VEGF) was “reverses the effect”.
